Target: T1, Clostridium leptum carboxyspermidine decarboxylase (ClCASDC) ([Clostridium] leptum, UniProt A7VSG2)
T1 construct: gene nspC; full length (376 residues), N-terminal His6 tag kept (pET-28b NdeI/XhoI), E. coli BL21 (DE3), codon-optimized; homodimer
T1 sequence (A7VSG2 1-376): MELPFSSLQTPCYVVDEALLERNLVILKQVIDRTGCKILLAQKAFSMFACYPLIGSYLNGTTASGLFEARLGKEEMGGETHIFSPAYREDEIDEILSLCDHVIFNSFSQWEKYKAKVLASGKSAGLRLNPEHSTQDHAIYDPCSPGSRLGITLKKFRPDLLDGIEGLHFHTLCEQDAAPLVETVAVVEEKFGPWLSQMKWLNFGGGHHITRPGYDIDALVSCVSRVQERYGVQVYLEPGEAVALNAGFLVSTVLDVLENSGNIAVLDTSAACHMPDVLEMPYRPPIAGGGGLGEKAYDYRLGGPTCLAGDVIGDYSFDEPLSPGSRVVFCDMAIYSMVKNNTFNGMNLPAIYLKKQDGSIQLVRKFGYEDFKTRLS
Assay: X-ray crystal structure, […] Å
Type: binding
Details: covalent; Schiff base (internal aldimine) with Lys43; pre-incubated with 100 µM PLP, 5 mM DTT; HEPES pH 6.8; both chains

Which “X-ray crystal structure, 1.41 Å” value does the source give for `Cc1ncc(COP(=O)(O)O)c(C=O)c1O` [PLP, pyridoxal 5′-phosphate] here?
The value was “PLP forms a Schiff base with Lys43 in both chains”.
